For 5 compounds, IC50 and ApoA-1 activity results are on record in patent publication US10710992B2, “Substituted pyridinones as bromodomain inhibitors” (Zenith Epigenetics Ltd., priority 2014, dated 2020).

One experiment deals with hIL-6 mRNA. In words: Inhibition of hIL-6 mRNA transcription in LPS-stimulated U937 cells. It counts as cell-based. The following applies: Homo sapiens, U-937; PMA-differentiated U937 cells, 1 h pretreatment, LPS 1 ug/mL, 3 h; read-out: IL-6 activity. The method, then:
Human leukemic monocyte lymphoma U937 cells (CRL-1593.2) were plated at a density of 3.2×10^4 cells per well in a 96-well plate in 100 μL RPMI-1640 containing 10% FBS and penicillin/streptomycin, and differentiated into macrophages for 3 days in 60 ng/mL PMA ([…]) at 37° C. in 5% CO2 prior to the addition of compound. The cells were pretreated for 1 h with increasing concentrations of test compound in 0.1% DMSO prior to stimulation with 1 ug/mL lipopolysaccharide from Escherichia coli. Triplicate wells were used for each concentration. The cells were incubated at 37° C., 5% CO2 for 3 h before the cells were harvested. At time of harvest, media was removed and cells were rinsed in 200 μL PBS. Cells were harvested using the mRNA Catcher PLUS kit according to manufacturer's instructions. The eluted mRNA was then used in a one-step quantitative real-time PCR reaction using components of the RNA UltraSense™ One-Step Kit (Life Technologies) together with Applied Biosystems TaqMan® primer-probes for hIL-6 and Cyclophilin. Real-time PCR plates were run on a ViiA™ 7 real time PCR machine (Applied Biosystems), data was analyzed, normalizing the Ct values for hIL-6 to an internal control, prior to determining the fold expression of each sample, relative to the control.

Experiment [1] concerns the target T1, Brd4 bromodomain 1 (BRD4(1)) (Homo sapiens, UniProt O60885).
T1 construct: made in house; host or cells: E. coli BL21(DE3)
In words: Inhibition of tetra-acetylated histone H4 binding to BET bromodomain (HTRF/FRET). As to conditions: His-tagged bromodomain 200 nM, tetra-acetylated histone H4 peptide, 2 h room temperature. The method, then: Proteins were cloned and overexpressed with a N-terminal 6× His tag, then purified by nickel affinity followed by size exclusion chromatography. Briefly, E. coli BL21(DE3) cells were transformed with a recombinant expression vector encoding N-terminally Nickel affinity tagged bromodomains from Brd2, Brd3, Brd4. Cell cultures were incubated at 37° C. with shaking to the appropriate density and induced overnight with IPTG. The supernatant of lysed cells was loaded onto Ni-IDA column for purification. Eluted protein was pooled, concentrated and further purified by size exclusion chromatography. Fractions representing monomeric protein were pooled, concentrated, aliquoted, and frozen at −80° C. for use in subsequent experiments.
Binding of tetra-acetylated histone H4 and BET bromodomains was confirmed by a Homogenous Time Resolved Fluorescence Resonance Energy Transfer (HTRF®) method. N-terminally His-tagged bromodomains (200 nM) and biotinylated tetra-acetylated historic H4 peptide (25-50 nM, Millipore) were incubated in the presence of Europium Cryptate-labeled streptavidin (Cisbio Cat. #610SAKLB) and XL665-labeled monoclonal anti-His antibody (Cisbio Cat. #61HISXLB) in a white 96 well microtiter plate (Greiner). For inhibition assays, serially diluted test compound was added to these reactions in a 0.2% final concentration of DMSO. Duplicate wells were used for each concentration tested. Final buffer concentrations were 30 mM HEPES pH 7.4, 30 mM NaCl, 0.3 mM CHAPS, 20 mM phosphate pH 7.0, 320 mM KF, 0.08% BSA. After a 2 h incubation at room temperature, fluorescence was measured at 665 and 620 nm with a SynergyH4 plate reader (Biotek). The binding inhibitory activity was shown by a decrease in 665 nm relative to […] fluorescence. IC50 values were determined from a dose response curve.

For the next experiment, the system named is hApoA-1 mRNA. In words: Up-regulation of hApoA-1 mRNA transcription in Huh7 cells. As to conditions: EC170, Huh7 cells, 48 h. It counts as cell-based, Human. On the procedure: In this example, hApoA-1 mRNA in tissue culture cells was quantitated to measure the transcriptional up-regulation of hApoA-1 when treated with a compound of the present disclosure.
Huh7 cells (2.5×10^5 per well) were plated in a 96-well plate using 100 μL DMEM per well, (Gibco DMEM supplemented with penicillin streptomycin and 10% FBS), 72 h before the addition of the compound. The cells are treated with increasing concentrations of the compound or DMSO (0.1%), and incubated at 37° C., 5% CO2 for 48 h. Spent media was removed from the Huh-7 cells and placed on ice for immediate use with the “LDH cytotoxicity assay Kit II” from Abcam. The cells remaining in the plate were rinsed with 100 μL PBS. Cells were harvested using the mRNA Catcher PLUS kit according to manufacturer's instructions. The eluted mRNA was then used in a one-step quantitative real-time PCR reaction, using components of the RNA UltraSense™ One-Step Kit (Life Technologies) together with Applied Biosystems TaqMan® primer-probes for hApoA-1 and Cyclophilin. Real-time PCR plates were run on a ViiA™ 7 real time PCR machine (Applied Biosystems), data was analyzed, normalizing the Ct values for hApoA-1 to an internal control, prior to determining the fold induction of each unknown sample, relative to the control.

In experiment [2] the test system is c-myc in Human AML MV4-11 cells. In words: Inhibition of cMYC expression in cancer cell lines (mRNA, real-time PCR). It counts as cell-based. The following applies: Homo sapiens, 3 h, cMYC mRNA normalized to Cyclophilin. The method, then:
MV4-11 cells (CRL-9591) were plated at a density of 2.5×10^4 cells per well in 96 well U-bottom plates and treated with increasing concentrations of test compound or DMSO (0.1%) in IMDM media containing 10% FBS and penicillin/streptomycin, and incubated for 3 h at 37° C. Triplicate wells were used for each concentration. Cells were pelleted by centrifugation and harvested using the mRNA Catcher PLUS kit according to manufacturer's instructions. The eluted mRNA isolated was then used in a one-step quantitative real-time PCR reaction, using components of the RNA UltraSense™ One-Step Kit (Life Technologies) together with Applied Biosystems TaqMan® primer-probes for cMYC and Cyclophilin. Real-time PCR plates were run on a ViiA™ 7 real time PCR machine (Applied Biosystems), data was analyzed, normalizing the Ct values for cMYC to an internal control, prior to determining the fold expression of each sample, relative to the control.
In general terms: In qPCR the cycle at which signal appears reflects the starting amount.

The subject of another experiment is Human AML MV-4-11 cells. In words: Inhibition of cell proliferation in cancer cell lines (CellTiter Aqueous One). It counts as cell-based. The following applies: Homo sapiens; MV4-11 cells, 72 h. On the procedure: MV4-11 cells (CRL-9591) were plated at a density of 5×10^4 cells per well in 96 well flat bottom plates and treated with increasing concentrations of test compound or DMSO (0.1%) in IMDM media containing 10% FBS and penicillin/streptomycin. Triplicate wells were used for each concentration and a well containing only media was used as a control. Plates were incubated at 37° C., 5% CO2 for 72 h before adding 20 μL of the CellTiter Aqueous One Solution (Promega) to each well and incubated at 37° C., 5% CO2 for an additional 3-4 h. The absorbance was read at 490 nm in a spectrophotometer and the percentage of cell titer relative to DMSO-treated cells was calculated after correcting for background by subtracting the blank well's signal. IC50 values were calculated using the GraphPad Prism software.

For a further experiment, the system named is hIL-17 mRNA. In words: Inhibition of hIL-17 mRNA transcription in OKT3-stimulated peripheral blood mononuclear cells. The experiment is classed as cell-based. As to conditions: human PBMC, 1 h pretreatment, OKT3 antibody, 6 h; read-out: IL-17 activity. On the procedure:
Human peripheral blood mononuclear cells were plated (2.0×10^5 cells per well) in a 96-well plate in 45 μL. OpTimizer T Cell expansion media (Life Technologies) containing 20 ng/ml IL-2 and penicillin/streptomycin. The cells were treated with increasing concentrations of the test compound or DMSO (0.1%), and incubated at 37° C., 5% CO2 for 1 h before addition of 10× stock OKT3 antibody at 10 ug/ml in media. Triplicate wells were used for each concentration. Cells were incubated at 37° C., 5% CO2 for 6 h before the cells were harvested. At time of harvest, cells were pelleted by centrifugation at 800 rpm for 5 min. Cells were harvested using the mRNA Catcher PLUS kit according to manufacturer's instructions. The eluted mRNA was then used in a one-step quantitative real-time PCR reaction, using components of the RNA UltraSense™ One-Step Kit (Life Technologies) together with Applied Biosystems TaqMan® primer-probes for hIL-17 and Cyclophilin. Real-time PCR plates were run on a ViiA™ 7 real time PCR machine (Applied Biosystems), data was analyzed, normalizing the Ct values for hIL-17 to an internal control, prior to determining the fold induction of each unknown sample, relative to the control.

Structures are written as SMILES.

As for `Cc1noc(C)c1-c1c[nH]c(=O)c(Nc2cccnc2)c1` [Example 2, 5-(3,5-dimethylisoxazol-4-yl)-3-(pyridin-3-ylamino)pyridin-2(1H)-one], the IC50 (with hIL-6 mRNA; in experiment [1]) was 3000 to 30000 nM in each case. In addition, the ApoA-1 activity entry in the experiment on hApoA-1 mRNA was “+ (EC170 value between 3 and 30 μM were deemed to be active (+))”.
In the case of `Cc1noc(C)c1-c1c[nH]c(=O)c(NC(C)c2ccccn2)c1` (centres unmarked) [Example 20, 5-(3,5-dimethylisoxazol-4-yl)-3-((1-(pyridin-2-yl)ethyl)amino)pyridin-2(1H)-one], the IC50 in the experiment with hIL-6 mRNA was 300 to 3000 nM; in experiment [2], 300 to 3000 nM; in the experiment on Human AML MV-4-11 cells, 300 to 3000 nM; in the experiment with hIL-17 mRNA, 300 to 3000 nM; in experiment [1], not above 300 nM.
As for `Cc1noc(C)c1-c1c[nH]c(=O)c(NCc2ccccc2)c1` [Example 4, 3-(benzylamino)-5-(3,5-dimethylisoxazol-4-yl)pyridin-2(1H)-one], the IC50 was 300 to 3000 nM with hIL-6 mRNA; 300 to 3000 nM in experiment [2]; 300 to 3000 nM with Human AML MV-4-11 cells; 300 to 3000 nM in the experiment with hIL-17 mRNA; not above 300 nM in experiment [1].
For `Cc1noc(C)c1-c1c[nH]c(=O)c(Nc2ccccc2)c1` [Example 1, 5-(3,5-dimethylisoxazol-4-yl)-3-(phenylamino)pyridin-2(1H)-one], the IC50 fell in the range of 300 to 3000 nM in the experiment with hIL-6 mRNA, 3000 to 30000 nM in experiment [2], 3000 to 30000 nM with Human AML MV-4-11 cells and 300 to 3000 nM in experiment [1]. For the same compound, the ApoA-1 activity entry in the experiment on hApoA-1 mRNA is “++ (EC170 value between 0.3 and 3 μM were deemed to be very active (++))”.
Consider `Cc1noc(C)c1-c1c[nH]c(=O)c(NCc2ccccn2)c1` [Example 17, 5-(3,5-dimethylisoxazol-4-yl)-3-((pyridin-2-ylmethyl)amino)pyridin-2(1H)-one], for which the IC50 in the experiment with hIL-6 mRNA was 300 to 3000 nM; in experiment [2] it was 300 to 3000 nM; in the experiment on Human AML MV-4-11 cells, 3000 to 30000 nM; with hIL-17 mRNA, 300 to 3000 nM; in experiment [1], not above 300 nM.
